Measurements as given in the CombiSolv-Exp solvation set (Vermeire and Green 2021).

Experiment: solvent given as SMILES

## C=C(C)C1CCC2(CO)CCC3(C)C(CCC4C5(C)CCC(O)C(C)(C)C5CCC43C)C12 (stereo unspecified)
In CC(C)=O
  solvation free energy, 298 K: -27.9 kcal/mol
In CCCCCCO
  solvation free energy, 298 K: -27.3 kcal/mol
In CCCCCO
  solvation free energy, 298 K: -27.6 kcal/mol
In CCCCO
  solvation free energy, 298 K: -28 kcal/mol
In CCCO
  solvation free energy, 298 K: -27.8 kcal/mol
In CCO
  solvation free energy, 298 K: -27.7 kcal/mol
In CCOC(C)=O
  solvation free energy, 298 K: -27.8 kcal/mol
In CO
  solvation free energy, 298 K: -27.3 kcal/mol
In COC(C)=O
  solvation free energy, 298 K: -27.4 kcal/mol
In ClC(Cl)Cl
  solvation free energy, 298 K: -28.4 kcal/mol
In ClCCl
  solvation free energy, 298 K: -27.7 kcal/mol
In O
  solvation free energy, 298 K: -14.2 kcal/mol

## OC1CCCCCC1
In O
  solvation free energy, 298 K: -5.48 kcal/mol

## OCC1OC(O)C(O)C(O)C1O (stereo unspecified)
In O
  solvation free energy, 298 K: -25.5 kcal/mol

## CCSc1nc(NC(C)C)nc(NC(C)C)n1
In O
  solvation free energy, 298 K: -9 kcal/mol

## CN(C)N=O
In CC(C)CC(C)(C)C
  solvation free energy, 298 K: -3.83 kcal/mol
In O
  solvation free energy, 298 K: -6.02 kcal/mol

## Clc1ccc(-c2ccc(Cl)cc2Cl)cc1
In CCCCCCCCO
  solvation free energy, 298 K: -10.7 kcal/mol
In O
  solvation free energy, 298 K: -2.77 kcal/mol

## COC(=O)c1ccc(OC)cc1
In O
  solvation free energy, 298 K: -5.33 kcal/mol

## Cc1ccc(C)c(C)c1
In O
  solvation free energy, 298 K: -0.83 kcal/mol

## CCCCCCC(C)O (stereo unspecified)
In CCCCCCC
  solvation free energy, 298 K: -5.86 kcal/mol
In O
  solvation free energy, 298 K: -3.77 kcal/mol

## O=NN1CCCCC1
In O
  solvation free energy, 298 K: -6.34 kcal/mol

## CCCCCCCCOC(=O)c1ccccc1C(=O)OCCCCCCCC
In O
  solvation free energy, 298 K: -6.68 kcal/mol

## CC(C)C(C)(C)C
In C=CCCCCCCCCCCCCCC
  solvation free energy, 298 K: -3.77 kcal/mol
In CN1CCCC1=O
  solvation free energy, 298 K: -2.78 kcal/mol
In O
  solvation free energy, 298 K: 2.62 kcal/mol

## N#Cc1cccc(O)c1
In O
  solvation free energy, 298 K: -9.65 kcal/mol

## O=C(c1ccccc1)N(O)c1cccc(Cl)c1
In O
  solvation free energy, 298 K: -10.9 kcal/mol

## COc1ccc(O)cc1
In CCCCCC
  solvation free energy, 298 K: -7.15 kcal/mol

## Fc1ccccc1
In C1CCOC1
  solvation free energy, 298 K: -4.94 kcal/mol
In C1COCCO1
  solvation free energy, 298 K: -4.69 kcal/mol
In CC(O)CO
  solvation free energy, 298 K: -3.53 kcal/mol
In CCCCCC
  solvation free energy, 298 K: -4.15 kcal/mol
In CCCCCCC
  solvation free energy, 298 K: -4.13 kcal/mol
In CCCCCCCCCC
  solvation free energy, 298 K: -3.48 kcal/mol
In CCCCCCCCCCCCCCCC
  solvation free energy, 298 K: -3.81 kcal/mol
In CN(C)C=O
  solvation free energy, 298 K: -4.75 kcal/mol
In COCCO
  solvation free energy, 298 K: -4.4 kcal/mol
In N#Cc1ccccc1
  solvation free energy, 298 K: -4.53 kcal/mol
In NC=O
  solvation free energy, 298 K: -2.8 kcal/mol
In O
  solvation free energy, 298 K: -0.8 kcal/mol
In OCCO
  solvation free energy, 298 K: -2.91 kcal/mol

## O=C1C=CC(=O)C=C1
In O
  solvation free energy, 298 K: -6.5 kcal/mol

## COc1ccc(NS(=O)(=O)c2ccc(N)cc2)nn1
In O
  solvation free energy, 298 K: -21.1 kcal/mol

## CCCCC(C)O (stereo unspecified)
In O
  solvation free energy, 298 K: -4.28 kcal/mol

## c1ccc2c(c1)-c1cccc3cccc-2c13
In C1COCCO1
  solvation free energy, 298 K: -13 kcal/mol
In CC(=O)N(C)C
  solvation free energy, 298 K: -13.2 kcal/mol
In CC(C)CC(C)(C)C
  solvation free energy, 298 K: -11.2 kcal/mol
In CC(C)CC(C)O
  solvation free energy, 298 K: -11.2 kcal/mol
In CC(C)CCO
  solvation free energy, 298 K: -11.2 kcal/mol
In CC(C)CO
  solvation free energy, 298 K: -11.1 kcal/mol
In CC(C)O
  solvation free energy, 298 K: -11.1 kcal/mol
In CCC(C)(C)O
  solvation free energy, 298 K: -11.3 kcal/mol
In CCC(C)O
  solvation free energy, 298 K: -11.2 kcal/mol
In CCCC(C)CO
  solvation free energy, 298 K: -11.4 kcal/mol
In CCCC(C)O
  solvation free energy, 298 K: -11.4 kcal/mol
In CCCCC(CC)CO
  solvation free energy, 298 K: -11.5 kcal/mol
In CCCCCC
  solvation free energy, 298 K: -11.5 kcal/mol
In CCCCCCC
  solvation free energy, 298 K: -11.6 kcal/mol
In CCCCCCCC
  solvation free energy, 298 K: -11.6 kcal/mol
In CCCCCCCCC=CCCCCCCCC(=O)OCC(COC(=O)CCCCCCCC=CCCCCCCCC)OC(=O)CCCCCCCC=CCCCCCCCC
  solvation free energy, 298 K: -12.2 kcal/mol
In CCCCCCCCCC
  solvation free energy, 298 K: -11.7 kcal/mol
In CCCCCCCCO
  solvation free energy, 298 K: -11.8 kcal/mol
In CCCCCCCO
  solvation free energy, 298 K: -11.9 kcal/mol
In CCCCCCO
  solvation free energy, 298 K: -11.7 kcal/mol
In CCCCCO
  solvation free energy, 298 K: -11.6 kcal/mol
In CCCCCl
  solvation free energy, 298 K: -12.8 kcal/mol
In CCCCO
  solvation free energy, 298 K: -11.5 kcal/mol
In CCCCOC(C)=O
  solvation free energy, 298 K: -12.7 kcal/mol
In CCCCOCCCC
  solvation free energy, 298 K: -12.1 kcal/mol
In CCCO
  solvation free energy, 298 K: -11.3 kcal/mol
In CCO
  solvation free energy, 298 K: -11.4 kcal/mol
In CCOC(C)=O
  solvation free energy, 298 K: -12.7 kcal/mol
In CCOCC
  solvation free energy, 298 K: -12.4 kcal/mol
In CN(C)C=O
  solvation free energy, 298 K: -13.2 kcal/mol
In CO
  solvation free energy, 298 K: -11.2 kcal/mol
In COC(C)(C)C
  solvation free energy, 298 K: -12.2 kcal/mol
In ClC(Cl)(Cl)Cl
  solvation free energy, 298 K: -12.7 kcal/mol
In ClC(Cl)Cl
  solvation free energy, 298 K: -13 kcal/mol
In ClCCCl
  solvation free energy, 298 K: -13 kcal/mol
In O
  solvation free energy, 298 K: -4.69 kcal/mol

## O=C1NC(=O)c2ccccc21
In O
  solvation free energy, 298 K: -9.61 kcal/mol

## COCCN
In O
  solvation free energy, 298 K: -6.55 kcal/mol

## CCCCCCCI
In O
  solvation free energy, 298 K: 0.27 kcal/mol

## COCCO
In C1CCOC1
  solvation free energy, 298 K: -5.45 kcal/mol
In COC(C)=O
  solvation free energy, 298 K: -5.46 kcal/mol
In O
  solvation free energy, 298 K: -6.77 kcal/mol

## CCC=O
In C1CCOC1
  solvation free energy, 298 K: -3.82 kcal/mol
In C=CCCCCCCCCCCCCCC
  solvation free energy, 298 K: -2.47 kcal/mol
In CC(C)CCCC(C)CCCC(C)CCCCC(C)CCCC(C)CCCC(C)C
  solvation free energy, 298 K: -2.57 kcal/mol
In CCC(C)=O
  solvation free energy, 298 K: -3.85 kcal/mol
In CCCCCCCC
  solvation free energy, 298 K: -2.54 kcal/mol
In CCCCCCCCCCCCCCCC
  solvation free energy, 298 K: -2.41 kcal/mol
In CCCCCCCCO
  solvation free energy, 298 K: -4.15 kcal/mol
In NC=O
  solvation free energy, 298 K: -3.26 kcal/mol
In O
  solvation free energy, 298 K: -3.35 kcal/mol
In [2H]O[2H]
  solvation free energy, 298 K: -3.31 kcal/mol

## O=C(O)c1cc([N+](=O)[O-])cc([N+](=O)[O-])c1
In C1CCOC1
  solvation free energy, 298 K: -14.9 kcal/mol
In C1COCCO1
  solvation free energy, 298 K: -14.6 kcal/mol
In CC(C)CCO
  solvation free energy, 298 K: -13.8 kcal/mol
In CC(C)CO
  solvation free energy, 298 K: -13.7 kcal/mol
In CC(C)O
  solvation free energy, 298 K: -14.1 kcal/mol
In CC(C)OC(C)C
  solvation free energy, 298 K: -13 kcal/mol
In CCC(C)O
  solvation free energy, 298 K: -13.9 kcal/mol
In CCCC(C)O
  solvation free energy, 298 K: -13.9 kcal/mol
In CCCCCCCCCCO
  solvation free energy, 298 K: -13.6 kcal/mol
In CCCCCCCCO
  solvation free energy, 298 K: -13.7 kcal/mol
In CCCCCCCO
  solvation free energy, 298 K: -13.7 kcal/mol
In CCCCCCO
  solvation free energy, 298 K: -13.8 kcal/mol
In CCCCCO
  solvation free energy, 298 K: -13.9 kcal/mol
In CCCCCOC(C)=O
  solvation free energy, 298 K: -13.7 kcal/mol
In CCCCO
  solvation free energy, 298 K: -14 kcal/mol
In CCCCOC(C)=O
  solvation free energy, 298 K: -13.9 kcal/mol
In CCCO
  solvation free energy, 298 K: -14.2 kcal/mol
In CCO
  solvation free energy, 298 K: -14.4 kcal/mol
In CCOC(C)=O
  solvation free energy, 298 K: -14.2 kcal/mol
In CCOCC
  solvation free energy, 298 K: -13.9 kcal/mol
In CN(C)C=O
  solvation free energy, 298 K: -14.8 kcal/mol
In O
  solvation free energy, 298 K: -11.3 kcal/mol
